From ChEMBL document CHEMBL1124696, “Nucleoside peptides. 10. Synthesis and T-cell immunostimulatory properties of certain peptide derivatives of 6-azacadeguomycin” (1989)

What was measured:
Format in all cases: functional
Homo sapiens [1] = species: Homo sapiens; experiment: Mitogen-induced human lymphocyte proliferation measured by incorporation of [3H]thymidine in lymphocytes with Pokeweed mitogen at a concentration of 1/2500 ug with compound at 0.1 uM
Homo sapiens [2] = species: Homo sapiens; experiment: Mitogen-induced human lymphocyte proliferation measured by incorporation of [3H]thymidine in lymphocytes with Phytohemagglutininin at a concentration of 0.125 ug with compound at 1 uM
Homo sapiens [3] = species: Homo sapiens; experiment: Mitogen-induced human lymphocyte proliferation measured by incorporation of [3H]-thymidine in lymphocytes with Pokeweed mitogen at a concentration of 1/2500 ug with out compound
Homo sapiens [4] = species: Homo sapiens; experiment: Mitogen-induced human lymphocyte proliferation measured by incorporation of [3H]thymidine in lymphocytes with Phytohemagglutininin at a concentration of 0.125 ug with compound at 10 uM
Homo sapiens [5] = species: Homo sapiens; experiment: Mitogen-induced human lymphocyte proliferation measured by incorporation of [3H]thymidine in lymphocytes with Pokeweed mitogen at a concentration of 1/2500 ug with compound at 1 uM
Homo sapiens [6] = species: Homo sapiens; experiment: Mitogen-induced human lymphocyte proliferation measured by incorporation of [3H]thymidine in lymphocytes with Phytohemagglutininin at a concentration of 0.125 ug with compound at 400 uM
Homo sapiens [7] = species: Homo sapiens; experiment: Mitogen-induced human lymphocyte proliferation measured by incorporation of [3H]thymidine in lymphocytes with Concanavalin A (Con A) at a concentration of 0.5 ug with out compound
Homo sapiens [8] = species: Homo sapiens; experiment: Mitogen-induced human lymphocyte proliferation measured by incorporation of [3H]thymidine in lymphocytes with Pokeweed mitogen at a concentration of 1/2500 ug with compound at 10 uM
Homo sapiens [9] = species: Homo sapiens; experiment: Mitogen-induced human lymphocyte proliferation measured by incorporation of [3H]thymidine in lymphocytes with Concanavalin A (Con A) at a concentration of 0.5 ug with compound at 10 uM
Homo sapiens [10] = species: Homo sapiens; experiment: Mitogen-induced human lymphocyte proliferation measured by incorporation of [3H]thymidine in lymphocytes with Concanavalin A (Con A) at a concentration of 0.5 ug with compound at 50 uM
Homo sapiens [11] = species: Homo sapiens; experiment: Mitogen-induced human lymphocyte proliferation measured by incorporation of [3H]thymidine in lymphocytes with Phytohemagglutininin at a concentration of 0.125 ug with compound at 0.1 uM
Homo sapiens [12] = species: Homo sapiens; experiment: Mitogen-induced human lymphocyte proliferation measured by incorporation of [3H]thymidine in lymphocytes with Concanavalin A (Con A) at a concentration of 0.5 ug with compound at 1 uM
Homo sapiens [13] = species: Homo sapiens; experiment: Mitogen-induced human lymphocyte proliferation measured by incorporation of [3H]thymidine in lymphocytes with Concanavalin A (Con A) at a concentration of 0.5 ug with compound at 0.1 uM
Homo sapiens [14] = species: Homo sapiens; experiment: Mitogen-induced human lymphocyte proliferation measured by incorporation of [3H]thymidine in lymphocytes with Phytohemagglutininin at a concentration of 0.125 ug with out compound
Homo sapiens [15] = species: Homo sapiens; experiment: Mitogen-induced human lymphocyte proliferation measured by incorporation of [3H]-thymidine in lymphocytes with Phytohemagglutininin at a concentration of 0.125 ug with compound at 50 uM
Homo sapiens [16] = species: Homo sapiens; experiment: Mitogen-induced human lymphocyte proliferation measured by incorporation of [3H]thymidine in lymphocytes with Pokeweed mitogen at a concentration of 1/2500 ug with compound at 50 uM
Homo sapiens [17] = species: Homo sapiens; experiment: Mitogen-induced human lymphocyte proliferation measured by incorporation of [3H]thymidine in lymphocytes with Pokeweed mitogen at a concentration of 1/2500 ug with compound at 400 uM
Homo sapiens [18] = species: Homo sapiens; experiment: Mitogen-induced human lymphocyte proliferation measured by incorporation of [3H]thymidine in lymphocytes with Concanavalin A at a concentration of 0.5 ug with compound at 400 uM
Homo sapiens [19] = species: Homo sapiens; experiment: Mitogen-induced human lymphocyte proliferation measured by incorporation of [3H]thymidine in lymphocytes with Concanavalin A (Con A) at a concentration of 0.25 ug with out compound
Homo sapiens [20] = species: Homo sapiens; experiment: Mitogen-induced human lymphocyte proliferation measured by incorporation of [3H]-thymidine in lymphocytes with Pokeweed mitogen at a concentration of 1/2500 ug with compound at 1 uM
Homo sapiens [21] = species: Homo sapiens; experiment: Mitogen-induced human lymphocyte proliferation measured by incorporation of [3H]thymidine in lymphocytes with Phytohemagglutininin at a concentration of 0.25 ug with out compound
Homo sapiens [22] = species: Homo sapiens; experiment: Mitogen-induced human lymphocyte proliferation measured by incorporation of [3H]thymidine in lymphocytes with Phytohemagglutininin at a concentration of 0.25 ug with compound at 400 uM
Homo sapiens [23] = species: Homo sapiens; experiment: Mitogen-induced human lymphocyte proliferation measured by incorporation of [3H]thymidine in lymphocytes with Concanavalin A (Con A) at a concentration of 0.25 ug with compound at 50 uM
Homo sapiens [24] = species: Homo sapiens; experiment: Mitogen-induced human lymphocyte proliferation measured by incorporation of [3H]thymidine in lymphocytes with Concanavalin A at a concentration of 0.25 ug with compound at 400 uM
Homo sapiens [25] = species: Homo sapiens; experiment: Mitogen-induced human lymphocyte proliferation measured by incorporation of [3H]thymidine in lymphocytes with Concanavalin A (Con A) at a concentration of 0.25 ug with compound at 0.1 uM
Homo sapiens [26] = species: Homo sapiens; experiment: Mitogen-induced human lymphocyte proliferation measured by incorporation of [3H]thymidine in lymphocytes with Concanavalin A (Con A) at a concentration of 0.25 ug with compound at 10 uM
Homo sapiens [27] = species: Homo sapiens; experiment: Mitogen-induced human lymphocyte proliferation measured by incorporation of [3H]thymidine in lymphocytes with Phytohemagglutininin at a concentration of 0.25 ug with compound at 50 uM
Homo sapiens [28] = species: Homo sapiens; experiment: Mitogen-induced human lymphocyte proliferation measured by incorporation of [3H]-thymidine in lymphocytes with Phytohemagglutininin at a concentration of 0.25 ug with compound at 0.1 uM
Homo sapiens [29] = species: Homo sapiens; experiment: Mitogen-induced human lymphocyte proliferation measured by incorporation of [3H]thymidine in lymphocytes with Phytohemagglutininin at a concentration of 0.25 ug with compound at 1 uM
Homo sapiens [30] = species: Homo sapiens; experiment: Mitogen-induced human lymphocyte proliferation measured by incorporation of [3H]thymidine in lymphocytes with Concanavalin A (Con A) at a concentration of 0.25 ug with compound at 1 uM
Homo sapiens [31] = species: Homo sapiens; experiment: Mitogen-induced human lymphocyte proliferation measured by incorporation of [3H]thymidine in lymphocytes with Phytohemagglutininin at a concentration of 0.25 ug with compound at 10 uM
Homo sapiens [32] = species: Homo sapiens; experiment: Mitogen-induced human lymphocyte proliferation measured by incorporation of [3H]thymidine in lymphocytes with Phytohemagglutininin at a concentration of 0.125 ug with compound at 50 uM
Homo sapiens [33] = species: Homo sapiens; experiment: Mitogen-induced human lymphocyte proliferation measured by incorporation of [3H]-thymidine in lymphocytes with Pokeweed mitogen at a concentration of 1/5000 ug with compound at 50 uM
Homo sapiens [34] = species: Homo sapiens; experiment: Mitogen-induced human lymphocyte proliferation measured by incorporation of [3H]thymidine in lymphocytes with Pokeweed mitogen at a concentration of 1/5000 ug with compound at 0.1 uM
Homo sapiens [35] = species: Homo sapiens; experiment: Mitogen-induced human lymphocyte proliferation measured by incorporation of [3H]thymidine in lymphocytes with Pokeweed mitogen at a concentration of 1/5000 ug with out compound
Homo sapiens [36] = species: Homo sapiens; experiment: Mitogen-induced human lymphocyte proliferation measured by incorporation of [3H]thymidine in lymphocytes with Pokeweed mitogen at a concentration of 1/5000 ug with compound at 10 uM
Homo sapiens [37] = species: Homo sapiens; experiment: Mitogen-induced human lymphocyte proliferation measured by incorporation of [3H]thymidine in lymphocytes with Pokeweed mitogen at a concentration of 1/5000 ug with compound at 400 uM
Homo sapiens [38] = species: Homo sapiens; experiment: Mitogen-induced human lymphocyte proliferation measured by incorporation of [3H]thymidine in lymphocytes with Pokeweed mitogen at a concentration of 1/5000 ug with compound at 1 uM
Homo sapiens [39] = species: Homo sapiens; experiment: Mitogen-induced human lymphocyte proliferation measured by incorporation of [3H]thymidine in lymphocytes with Phytohemagglutininin at a concentration of 0.25 ug with compound at 0.1 uM

Row | Structure (SMILES) | Incorporation (Homo sapiens [1]) | Incorporation (Homo sapiens [2]) | Incorporation (Homo sapiens [3]) | Incorporation (Homo sapiens [4]) | Incorporation (Homo sapiens [5]) | Incorporation (Homo sapiens [6]) | Incorporation (Homo sapiens [7]) | Incorporation (Homo sapiens [8]) | Incorporation (Homo sapiens [9]) | Incorporation (Homo sapiens [10]) | Incorporation (Homo sapiens [11]) | Incorporation (Homo sapiens [12]) | Incorporation (Homo sapiens [13]) | Incorporation (Homo sapiens [14]) | Incorporation (Homo sapiens [16]) | Incorporation (Homo sapiens [17]) | Incorporation (Homo sapiens [18]) | Incorporation (Homo sapiens [21]) | Incorporation (Homo sapiens [22]) | Incorporation (Homo sapiens [27]) | other results
1 | NC(=O)CNC(=O)c1nn(C2O[C@H](CO)[C@@H](O)[C@H]2O)c2nc(N)[nH]c(=O)c12 (stereo partly specified) | 44670 | 32413 | 39468 | 47343 | 42288 | 66017 | 43401 | 44370 | 46662 | 44360 | 27956 | 40503 | 43954 | 35075 | 39719 | 40023 | 43649 | – | – | – | Incorporation (Homo sapiens [15]): 50056
2 | NC(=O)CC[C@H](NC(=O)c1nn(C2O[C@H](CO)[C@@H](O)[C@H]2O)c2nc(N)[nH]c(=O)c12)C(N)=O (stereo partly specified) | 46067 | – | 40326 | – | – | – | – | 45049 | – | – | – | – | – | – | 44234 | 29854 | – | 57799 | 39824 | 43877 | Incorporation (Homo sapiens [19]): 25758; Incorporation (Homo sapiens [20]): 39260; Incorporation (Homo sapiens [23]): 28119; Incorporation (Homo sapiens [24]): 24167; Incorporation (Homo sapiens [25]): 26181; Incorporation (Homo sapiens [26]): 31799; Incorporation (Homo sapiens [28]): 49448; Incorporation (Homo sapiens [29]): 50331; Incorporation (Homo sapiens [30]): 30068; Incorporation (Homo sapiens [31]): 48588
3 | N=C(N)NCCC[C@H](NC(=O)[C@H](Cc1ccccc1)NC(=O)c1nn(C2O[C@H](CO)[C@@H](O)[C@H]2O)c2nc(N)[nH]c(=O)c12)C(N)=O (stereo partly specified) | 17344 | 19743 | 15723 | 36645 | 18470 | 26854 | 35226 | 18784 | 41908 | 36977 | 22401 | 36088 | 43850 | 23120 | 19755 | 18394 | 30792 | 35768 | 33862 | 37174 | Incorporation (Homo sapiens [32]): 21841; Incorporation (Homo sapiens [33]): 9960; Incorporation (Homo sapiens [29]): 46087; Incorporation (Homo sapiens [34]): 11906; Incorporation (Homo sapiens [35]): 7043; Incorporation (Homo sapiens [36]): 8734; Incorporation (Homo sapiens [37]): 8214; Incorporation (Homo sapiens [31]): 36688; Incorporation (Homo sapiens [38]): 8437; Incorporation (Homo sapiens [39]): 38673
